Source: patent US6881729B2, “Bile compound and method of controlling behavior of lampreys therewith” (Board of Trustees of Michigan State University, priority 2001, dated 2005)

What was measured:
[1] = diethyl ether extraction from buffers of different pH; assay type: physicochemical; settings: pH 4
Method: A trial was carried out in which a mixture of synthetic 3kPZS and 3kACA was dissolved in buffers of different pH and then extracted with diethyl ether. […] Based on this observation, an extract from 1 L of water that had been conditioned by a spermiating male was redissolved in 100 μL methanol and 900 μL of 0.05 M sodium acetate buffer, pH 4.0. This was extracted four times with 3 mL diethyl ether. The residue was then separated by HPLC as described above and the fractions assayed with the ELISA. Some of the extract which had not been treated with diethyl ether was treated in the same way. After these separations had been performed, standard synthetic 3kACA, 3kPZS and 3kPZ (200 μg each) were run on the column under identical conditions.

[2] = tested on: antibody against 3kPZS (polyclonal antiserum L286); assay: ELISA cross-reactivity of the antiserum; assay type: binding, rabbit
Method: Plates were coated with polyclonal goat anti-rabbit IgG (Sigma; product code R2004) by adding 120 μL of antibody diluted in 0.05 M potassium phosphate buffer, pH 7.4 to each well and incubating overnight at 4° C. The plates were blocked by addition of 100 μL of 3% BSA in 0.1 M potassium phosphate buffered saline and storage at 4° C. for at least 12 h.
Non-specific binding (NSB) and maximum binding (B0) were measured in separate wells. Water washings, extracts, or HPLC fractions were diluted 20 times in assay buffer and 100 μL added to wells in duplicate; 50 μL of the diluted enzyme label (1:2000) was added to all wells and 50 μL of primary antibody (1:500,000) was added to all but NSB wells. Plates were incubated for 2 h at room temperature in a humid chamber. Then, after rinsing three times with wash buffer, 200 μL Ellmans reagent (4.3 mg DTNB, and 4 mg acetyl thiocholine in 20 mL 0.02 M potassium phosphate buffer) was added to each well. The plates were sealed and incubated overnight at room temperature in a humid chamber.
To test the cross-reactivity of the antibody to structurally related compounds, serial dilutions of ACA, PZ, PZS, CA, 3kACA, and 3kPZ were assayed alongside the 3kPZS standard.

[3] = tested on: ovulated females; assay: two-choice maze behavioral test (preference and searching); assay type: in vivo, sea lamprey, Petromyzon marinus
Excerpt: Behavioral tests confirmed that the odor of spermiating males influences the distribution and locomotor activities of ripe females in a two-choice maize as follows. Animals were classified as spermiating males and ovulated females if milt and eggs, respectively, could be expressed by manual pressure, or otherwise as non-spermiating males and pre-ovulatory females, and used as either test subjects or odor donors in a flow through (0.07 m/s) maze (L 4.6 m×W 1.2 m) with plywood bottom, sides, and a partition in the middle which extended 2.4 m from the upstream end, and with plastic meshes blocking fish movement at both the upstream and downstream ends. Odor donors were held above the upstream mesh. Between 0700 and 1700 h, a single test subject was acclimated for 10 min in the maze, and its behavior video recorded for 20 min. Then, 5 lampreys (all of one sex and maturity) were introduced into the mesh chamber on a randomly chosen side, and behavior of test subjects recorded for another 20 min. When washings were used, a spermiating male was held in 10 L of water for four hours and the water introduced into the odor chamber at 75 mL/min. Naïve observers scored videotapes for the total time spent in each side before (Be and Bc) and after (Ae and Ac) odorant introduction. The scores were used to calculate an index of preference: I=(Ae/(Ae+Be))−(Ac/(Ac+Bc)). A similar index was computed for searching behaviors which involved pacing back and forth across the upstream barrier, increased swimming speed, and rapid beating of the tail.
When tested in a two-choice maze, ovulated females (but not males or pre-ovulatory females) spent more time in the compartment scented with washings from spermiating males (Table 1). There was no preference of ovulated females for washings of pre-spermiating males or females.
From this we estimated that in the two-choice maze experiments with live males, the pheromone reached a concentration between 0.1 and 0.2 ηM. Therefore, the converted PS was tested in the two-choice maze at a final concentration of 0.17 ηM.

[4] = long-term storage of natural compound in ethanol; assay type: physicochemical; settings: 1 mg/mL in ethanol at −20° C. for over one year
Excerpt: In Example 1, only a small supply of synthetic 3kPZS had been produced by enzymatic oxidation of the 3α-hydroxyl group of PZS. This restricted the number of comparisons that could be made between the natural and synthetic 3kPZS. This example completes these studies. This example confirms that both synthetic and natural 3kPZS have the same chromatographic properties and behave in the same way when treated with 3α-HSD and sulfatase. […] The reason for this has not been fully established. However, the natural compound that was used in this example had been stored at 1 mg/mL in ethanol at −20° C. for over one year, whereas the synthetic compound had been made up freshly. The possibility is that the sulfate group is unstable in long-term storage.

[5] = tested on: olfactory organs of adult females; assay: electro-olfactography (EOG); assay type: in vivo, sea lamprey
Excerpt: The response magnitude is expressed as the percentage of responses to 10^−5 M L-arginine, the standard odorant. Vertical bars, one standard deviation.

[6] = weight for weight basis, compared with 3kPZS
[7] = ovulated females, final concentration of 0.17 ηM
[8] = ovulated females, flow-through maze, washings introduced at 75 mL/min, PP at final concentration of 0.17 ηM
[9] = ovulated females, searching behavior

SMILES: C[C@H](CCC(=O)O)[C@H]1CC[C@H]2[C@@H]3[C@H](O)C[C@H]4CC(=O)CC[C@]4(C)[C@H]3C[C@H](O)[C@]12C [3kACA, 7α,12α-dihydroxy-5α-cholan-3-one-24-oic acid]
- extraction into the diethyl ether phase [1]: could be extracted into the diethyl ether phase
- cross-reaction with the antiserum ([2]; relative to 3kPZS standard): 100%
- cross-reaction with the antiserum [2, 6]: equally well

SMILES: C[C@H](CCCO)[C@H]1CC[C@H]2[C@@H]3[C@H](O)C[C@H]4CC(=O)CC[C@]4(C)[C@H]3C[C@H](O)[C@]12C [3kPZ, 7α,12α,24-trihydroxy-5α-cholan-3-one]
- cross-reaction with the antiserum ([2]; relative to 3kPZS standard): 100%
- cross-reaction with the antiserum [2, 6]: equally well

SMILES: CC(CCCOS(=O)(=O)O)C1CCC2C3C(O)CC4CC(=O)CCC4(C)C3CC(O)C12C (stereo not drawn) [3kPZS, 7α,12α,24-trihydroxy-5α-cholan-3-one-24-sulfate]
- level at which it attracts ovulated females ([3]; in words): sub-nanomolar
- searching behavior in the scented side [3, 7]: increased searching behavior
- time spent in the scented side [3, 7]: spent a longer time
- No. animals that spent more time on side that was: Scented [3, 8]: 8
- No. animals that spent more time on side that was: Unscented [3, 8]: 0
- No. animals that spent more time searching on side that was: Scented [3, 9]: 6
- No. animals that spent more time searching on side that was: Unscented [3, 9]: 0
- stability in storage [4]: appeared to have broken down to 3kPZ
- extraction into the diethyl ether phase [1]: not
- olfactory stimulation by EOG ([5]; adult females): highly stimulatory
- detection threshold ([5]; worked out from release rate and EOG detection of male washings after dilution of 10^6 times): about 10^−12 molar

SMILES: C[C@H](CCCOS(=O)(=O)O)[C@H]1CC[C@H]2[C@@H]3[C@H](O)C[C@H]4C[C@H](O)CC[C@]4(C)[C@H]3C[C@H](O)[C@]12C [PZS, 3α,7α,12α,24-tetrahydroxy-5α-cholan-24-sulfate]
- cross-reaction with the antiserum ([2]; relative to 3kPZS standard): 1.6%
